This note sets out measurements from ChEMBL document CHEMBL1144764, “A molecular modeling study of the interaction of 2'-fluoro-substituted analogues of dUMP/FdUMP with thymidylate synthase” (Bioorg Med Chem Lett, 2008).

In this test the target is Thymidylate synthase (Homo sapiens, UniProt P04818).
Sequence of Thymidylate synthase (P04818 whole entry): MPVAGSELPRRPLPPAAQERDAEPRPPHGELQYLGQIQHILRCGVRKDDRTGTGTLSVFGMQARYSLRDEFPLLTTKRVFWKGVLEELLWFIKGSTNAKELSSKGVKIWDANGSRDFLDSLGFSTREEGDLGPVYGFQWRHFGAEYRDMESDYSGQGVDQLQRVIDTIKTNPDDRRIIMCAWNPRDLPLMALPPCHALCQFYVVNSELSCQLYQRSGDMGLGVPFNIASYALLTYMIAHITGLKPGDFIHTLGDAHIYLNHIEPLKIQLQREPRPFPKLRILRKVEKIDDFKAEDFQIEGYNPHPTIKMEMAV

Description: Binding affinity to human recombinant thymidylate synthase

Turning to `O=c1ccn([C@@H]2O[C@H](COP(=O)(O)O)[C@@H](O)C2(F)F)c(=O)[nH]1`, the Ki was 433 µM. Consider `O=c1ccn([C@@H]2O[C@H](COP(=O)(O)O)[C@@H](O)[C@@H]2F)c(=O)[nH]1`, for which affinity was put at a Ki of 10.3 µM.

As a reminder, the Ki is the dissociation constant of the complex between target and ligand, obtained from inhibition or displacement.
